The subject of one assay is anti-insulin B cells. Briefly: BTK inhibitor treatment of 125Tg/NOD mice (Ibrutinib chow); B cell subsets assessed by flow cytometry in freshly isolated organs. Format: in vivo, mouse. How it is done: After 5-10 weeks, spleen, draining pancreatic lymph nodes, and pancreas were harvested and flow cytometry was used to analyze B cell subsets. […] Mice were 12-13 weeks old at time of analysis.
B cell subsets were assessed by flow cytometry in freshly isolated organs as outlined below.
BM was eluted from long bones, and spleens and pancreatic draining lymph nodes (PLN) were macerated with HBSS (Invitrogen) plus 10% FBS (HyClone). Red blood cells were lysed using Tris-NH4Cl. Freshly isolated pancreata were digested with 3 mL of 1 mg/mL collagenase P diluted in HBSS for 30 min at 37° C., then tissue was disrupted using an 18-gauge needle. Ice cold HBSS plus 10% FBS was immediately added to inhibit collagenase activity. Cells were directly analyzed by flow cytometry. Flow cytometry Ab reagents were reactive with B220 (6B2), IgM^a (DS-1), CD19 (1D3), CD21 (7G6), CD23 (B3B4), CD93 (AA4.1), or IgM chain-specific) (Life Technologies). Biotin N-hydroxysuccinimide ester (Sigma) was used to biotinylate human insulin (Sigma) at pH 8.0 in bicine buffer. Streptavidin reagents (BD Biosciences) were used to detect biotinylated reagents. 7AAD (BD Biosciences) was used to identify dead cells. Sample acquisition was performed using an LSR II flow cytometer (BD Biosciences) and FlowJo software (Treestar) was used for analysis.
BTK is a complex protein with adapter as well as kinase functions that have independent effects on various aspects of B cell development and function. […] Flow cytometry analysis of freshly isolated splenocytes was used to identify B cell subsets as in FIG. 3.
A general note: A flow cytometer gives signals particle by particle.

The nature of assay [1]: Example 3: prediabetic individual administered ibrutinib and cyclosporine A. The following applies: individual with impaired fasting glycemia and impaired glucose tolerance; ibrutinib administered with cyclosporine A. The format is in vivo. As for the experimental part:
An individual presents with impaired fasting glycemia and impaired glucose tolerance. The individual is determined to be prediabetic.

Where [2] appears, read: spleen, Ibrutinib vs. placebo chow, 125Tg/NOD mice.

`C=CC(=O)N1CCC[C@@H](n2nc(-c3ccc(Oc4ccccc4)cc3)c3c(N)ncnc32)C1` [Ibrutinib, (R)-1-(3-(4-amino-3-(4-phenoxyphenyl)-1H-pyrazolo[3,4-d]pyrimidin-1-yl)piperidin-1-yl)prop-2-en-1-one]: the “trafficking of anti-insulin B lymphocytes to pancreatic draining lymph nodes or pancreas” value in the assay on anti-insulin B cells (125Tg/NOD mice treated with Ibrutinib) is “does not block their trafficking to pancreatic draining lymph nodes or pancreas”. For the same compound, the “non-B lymphocyte numbers in spleen” value in the assay on anti-insulin B cells (125Tg/NOD mice, Ibrutinib chow 5-10 weeks, 38 mg/kg per day, placebo 28.6±8.3, no difference) is 25.1±8.5 ×10^6. The “number of B lymphocytes (B220+ IgM+ live lymphocytes) in spleen” value with anti-insulin B cells (125Tg/NOD mice, Ibrutinib chow 5-10 weeks, average 38 mg/kg per day, placebo 22.2±5.8, p<0.001) is 10.1±2.8 ×10^6. Further, the “T2 B cell subset numbers in the spleen” value in the assay on anti-insulin B cells (125Tg/NOD mice, Ibrutinib chow 5-10 weeks, placebo 17±3, p=0.51, no difference) is on record as 49±76 ×10^4. Moreover, in the assay on anti-insulin B cells (125Tg/NOD mice, Ibrutinib chow 5-10 weeks, placebo 43±6, p=0.0015), the “pre-marginal zone B cell numbers in the spleen” value is 17±5 ×10^4. Further, the “follicular B cell numbers in the spleen” value with anti-insulin B cells (125Tg/NOD mice, Ibrutinib chow 5-10 weeks, placebo 345±38, p<0.001) is given as 41±37 ×10^4. Also, the “marginal zone B cell numbers in the spleen” value in the assay with anti-insulin B cells (125Tg/NOD mice, Ibrutinib chow 5-10 weeks, placebo 1283±217, p=0.002) is 443±164 ×10^4. In the assay with anti-insulin B cells (125Tg/NOD mice, Ibrutinib chow, placebo 5.2±7.7, p=0.36, no significant difference), the “number of B cells in the pancreas” value was 0.66±0.80 ×10^4. For the same compound, the “number of B cells in the pancreatic draining lymph nodes” value in the assay with anti-insulin B cells (125Tg/NOD mice, Ibrutinib chow, placebo 21±8, p=0.49, no significant difference) is reported as 26±9 ×10^4. Further, in the assay on anti-insulin B cells (setting [2]), the “reduction in follicular B cell numbers” value is recorded as 88%, the “reduction in marginal zone B cell numbers” value is 65% and the “reduction in pre-marginal zone B cell numbers” value came out at 60%. Besides, the “development of Type 1 Diabetes” value in assay [1] is recorded as “does not develop Type 1 Diabetes”.

Values taken from patent US20150141438A1, “METHODS FOR DELAYING OR PREVENTING THE ONSET OF TYPE 1 DIABETES” (Pharmacyclics, Inc., priority 2013, published 2015).
